From patent publication EP0155104A2, “Free analyte assay” (priority 1984, dated 1985)
Where “and” joins values, the source holds several entries; their conditions need not be identical. Equal entries are not always repeated. Where two headings read alike, the source gives them in different places.

What was measured:
serum proteins = assay: Amerlex free T4 radioimmunoassay: Bo value with added blocking agent; assay type: binding
natural protein binders = details: in body fluids; cited from earlier work
[1] = molecular target: T1, thyroxine binding globulin (TBG) (Homo sapiens, UniProt P05543); details: in body fluids; cited from earlier work
T1 sequence (P05543 21-415): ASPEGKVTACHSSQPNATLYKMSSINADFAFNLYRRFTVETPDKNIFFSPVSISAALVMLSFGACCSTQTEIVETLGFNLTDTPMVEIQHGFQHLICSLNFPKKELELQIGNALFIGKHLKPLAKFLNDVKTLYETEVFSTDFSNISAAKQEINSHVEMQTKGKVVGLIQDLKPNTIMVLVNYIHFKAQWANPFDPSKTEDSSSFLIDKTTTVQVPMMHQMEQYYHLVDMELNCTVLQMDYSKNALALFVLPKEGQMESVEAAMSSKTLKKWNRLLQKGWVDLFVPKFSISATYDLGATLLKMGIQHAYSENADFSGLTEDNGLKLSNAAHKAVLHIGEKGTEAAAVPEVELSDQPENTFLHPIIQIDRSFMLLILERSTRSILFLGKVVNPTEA

[2] = molecular target: thyroxine binding prealbumin (TBPA) (Homo sapiens, UniProt P02766); details: in body fluids; cited from earlier work
albumin (Alb) = albumin (Alb) (Homo sapiens, UniProt P02768); details: cited from earlier work
[3] = blocking agent 10^-3 M, no addition: 67.7
[4] = blocking agent 10^-2 M, no addition: 67.7

Sequence of albumin (Alb) (P02768 25-609): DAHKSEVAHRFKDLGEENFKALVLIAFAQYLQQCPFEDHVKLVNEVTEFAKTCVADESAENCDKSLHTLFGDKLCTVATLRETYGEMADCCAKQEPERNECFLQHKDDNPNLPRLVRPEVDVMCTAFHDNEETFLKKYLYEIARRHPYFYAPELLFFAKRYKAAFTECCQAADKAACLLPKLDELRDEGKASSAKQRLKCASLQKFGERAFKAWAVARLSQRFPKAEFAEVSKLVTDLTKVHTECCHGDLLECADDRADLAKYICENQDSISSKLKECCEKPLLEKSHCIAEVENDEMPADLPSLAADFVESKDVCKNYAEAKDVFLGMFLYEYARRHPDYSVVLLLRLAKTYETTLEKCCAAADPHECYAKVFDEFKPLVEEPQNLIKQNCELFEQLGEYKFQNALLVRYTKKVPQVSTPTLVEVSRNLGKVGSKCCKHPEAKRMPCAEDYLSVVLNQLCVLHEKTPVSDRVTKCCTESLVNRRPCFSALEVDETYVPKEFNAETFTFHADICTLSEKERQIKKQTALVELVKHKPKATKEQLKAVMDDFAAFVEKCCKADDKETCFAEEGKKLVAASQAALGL

In the case of O=[N+]([O-])c1ccc(O)c([N+](=O)[O-])c1 [2,4-dinitrophenol], the “Bo (% tracer bound)” value (serum proteins; [3]) is reported as 60.0%.
In the case of O=C(O)c1c(O)cccc1O [Gamma resorcylate, sodium gamma-resorcylate (2,6-dihydroxybenzoate)], the “Bo (% tracer bound)” value (serum proteins; [4]) is reported as 51.6% and the “Bo (% tracer bound)” value (serum proteins; [3]) is reported as 70.3%.
With O=C(O)c1cc(O)ccc1O [Gentisate, sodium gentisate (2,5-dihydroxybenzoate)] the “Bo (% tracer bound)” value (serum proteins; [4]) was 71.8% and the “Bo (% tracer bound)” value (serum proteins; [3]) was 70.5%.
In the case of O=C(O)c1cc(S(=O)(=O)O)ccc1O [SSA, 5-sulphosalicylic acid], the “Bo (% tracer bound)” value (serum proteins; SSA 1x10^-2 M, no SSA: 65) is reported as 82.5%, the “Bo (% tracer bound)” value (serum proteins; SSA 1x10^-3 M, no SSA: 65) is reported as 74% and the “Bo (% tracer bound)” value (serum proteins; SSA 2x10^-2 M, T4-analogue tracer bound to antiserum at zero T4, no SSA: 65) is reported as 82%. For the same compound, the “Bo (% tracer bound)” value (serum proteins; SSA 2x10^-3 M, no SSA: 65) was 80%, the “Bo (% tracer bound)” value (serum proteins; SSA 2x10^-4 M, no SSA: 65) was 68% and the “Bo (% tracer bound)” value (serum proteins; SSA 5x10^-3 M, no SSA: 65) was 78%. The “Bo (% tracer bound)” value (serum proteins; SSA 5x10^-4 M, no SSA: 65) was 72% and the “Bo (% tracer bound)” value (serum proteins; SSA 5x10^-5 M, no SSA: 65) was 66%.
With NC(=O)c1ccccc1O [Salicylamide, salicylamide] the “Bo (% tracer bound)” value (serum proteins; [4]) was 43.0% and the “Bo (% tracer bound)” value (serum proteins; [3]) was 67.5%.
For O=C([O-])c1ccccc1O.[Na+] [Salicylate, sodium salicylate], the “Bo (% tracer bound)” value (serum proteins) was 72.6% and 69.5%.
For N[C@@H](Cc1cc(I)c(Oc2ccc(O)c(I)c2)c(I)c1)C(=O)O [T3, Tri-iodothyronine], the in free form (natural protein binders) is given as 0.3%, the “share of the bound fraction bound to TBG” value [1] is given as 60% and the “share of the bound fraction bound to TBPA” value [2] is given as 15%. The “share of the bound fraction bound to Alb” value (albumin (Alb)) was 25%.
For N[C@@H](Cc1cc(I)c(Oc2cc(I)c(O)c(I)c2)c(I)c1)C(=O)O [T4, Thyroxine], the “bound to natural protein binders” value (natural protein binders) is given as 99.97%, the “share of the bound fraction bound to TBG” value [1] is given as 70% and the “share of the bound fraction bound to TBPA” value [2] is given as 20%.
